# Reference: PubChem BioAssay (NCI)
#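 Method: 48-hour compound exposure of cells in 96-well plates, five concentrations, linear interpolation of endpoints. At the TGI there is no net growth.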
# Experiments:
# Experiment in all cases: growth of human tumour cells (NCI), 48 h
# 786-0 renal = system: 786-0 renal
# A498 renal = system: A498 renal
# A549 NSCLC = system: A549 NSCLC
# ACHN renal = system: ACHN renal
# CAKI-1 renal = system: CAKI-1 renal
# CCRF-CEM leukemia = system: CCRF-CEM leukemia
# COLO 205 colon = system: COLO 205 colon
# DLD-1 colon = system: DLD-1 colon
# DMS 273 small cell lung = system: DMS 273 small cell lung
# EKVX NSCLC = system: EKVX NSCLC
# HCT-116 colon = system: HCT-116 colon
# HCT-15 colon = system: HCT-15 colon
# HL-60(TB) leukemia = system: HL-60(TB) leukemia
# HOP-18 NSCLC = system: HOP-18 NSCLC
# HOP-62 NSCLC = system: HOP-62 NSCLC
# HOP-92 NSCLC = system: HOP-92 NSCLC
# HT29 colon = system: HT29 colon
# IGROV1 ovarian = system: IGROV1 ovarian
# K-562 leukemia = system: K-562 leukemia
# KM12 colon = system: KM12 colon
# KM20L2 colon = system: KM20L2 colon
# LOX IMVI melanoma = system: LOX IMVI melanoma
# LXFL 529 NSCLC = system: LXFL 529 NSCLC
# M14 melanoma = system: M14 melanoma
# M19-MEL melanoma = system: M19-MEL melanoma
# MALME-3M melanoma = system: MALME-3M melanoma
# MOLT-4 leukemia = system: MOLT-4 leukemia
# NCI-H226 lung = system: NCI-H226 lung
# NCI-H23 lung = system: NCI-H23 lung
# NCI-H460 lung = system: NCI-H460 lung
# NCI-H522 lung = system: NCI-H522 lung
# OVCAR-3 ovarian = system: OVCAR-3 ovarian
# OVCAR-4 ovarian = system: OVCAR-4 ovarian
# OVCAR-5 ovarian = system: OVCAR-5 ovarian
# OVCAR-8 ovarian = system: OVCAR-8 ovarian
# RPMI-8226 leukemia = system: RPMI-8226 leukemia
# RXF 393 renal = system: RXF 393 renal
# RXF-631 renal = system: RXF-631 renal
# SF-268 CNS = system: SF-268 CNS
# SF-295 CNS = system: SF-295 CNS
# SF-539 CNS = system: SF-539 CNS
# SK-MEL-2 melanoma = system: SK-MEL-2 melanoma
# SK-MEL-28 melanoma = system: SK-MEL-28 melanoma
# SK-MEL-5 melanoma = system: SK-MEL-5 melanoma
# SK-OV-3 ovarian = system: SK-OV-3 ovarian
# SN12C renal = system: SN12C renal
# SNB-19 CNS = system: SNB-19 CNS
# SNB-75 CNS = system: SNB-75 CNS
# SNB-78 CNS = system: SNB-78 CNS
# SR leukemia = system: SR leukemia
# SW-620 colon = system: SW-620 colon
# TK-10 renal = system: TK-10 renal
# U251 CNS = system: U251 CNS
# UACC-257 melanoma = system: UACC-257 melanoma
# UACC-62 melanoma = system: UACC-62 melanoma
# UO-31 renal = system: UO-31 renal
# XF 498 CNS = system: XF 498 CNS
# HCC-2998 colon = system: HCC-2998 colon
compound,measurement,setting,value
O=[N+]([O-])c1ccc(C2N3CCCCC3[C@H]3CCCCN23)cc1 (some centres undefined),TGI,786-0 renal,> 100 µM
same,TGI,A498 renal,> 100 µM
same,TGI,A549 NSCLC,> 100 µM
same,TGI,ACHN renal,> 100 µM
same,TGI,CAKI-1 renal,> 100 µM
same,TGI,CCRF-CEM leukemia,> 100 µM
same,TGI,COLO 205 colon,> 100 µM
same,TGI,DLD-1 colon,> 100 µM
same,TGI,DMS 273 small cell lung,> 100 µM
same,TGI,EKVX NSCLC,> 100 µM
same,TGI,HCT-116 colon,> 100 µM
same,TGI,HCT-15 colon,> 100 µM
same,TGI,HL-60(TB) leukemia,> 100 µM
same,TGI,HOP-18 NSCLC,> 100 µM
same,TGI,HOP-62 NSCLC,> 100 µM
same,TGI,HOP-92 NSCLC,> 100 µM
same,TGI,HT29 colon,> 100 µM
same,TGI,IGROV1 ovarian,> 100 µM
same,TGI,K-562 leukemia,> 100 µM
same,TGI,KM12 colon,> 100 µM
same,TGI,KM20L2 colon,> 100 µM
same,TGI,LOX IMVI melanoma,> 100 µM
same,TGI,LXFL 529 NSCLC,> 100 µM
same,TGI,M14 melanoma,> 100 µM
same,TGI,M19-MEL melanoma,> 100 µM
same,TGI,MALME-3M melanoma,> 100 µM
same,TGI,MOLT-4 leukemia,> 100 µM
same,TGI,NCI-H226 lung,> 100 µM
same,TGI,NCI-H23 lung,> 100 µM
same,TGI,NCI-H460 lung,> 100 µM
same,TGI,NCI-H522 lung,> 100 µM
same,TGI,OVCAR-3 ovarian,> 100 µM
same,TGI,OVCAR-4 ovarian,> 100 µM
same,TGI,OVCAR-5 ovarian,> 100 µM
same,TGI,OVCAR-8 ovarian,> 100 µM
same,TGI,RPMI-8226 leukemia,> 100 µM
same,TGI,RXF 393 renal,> 100 µM
same,TGI,RXF-631 renal,> 100 µM
same,TGI,SF-268 CNS,> 100 µM
same,TGI,SF-295 CNS,> 100 µM
same,TGI,SF-539 CNS,> 100 µM
same,TGI,SK-MEL-2 melanoma,> 100 µM
same,TGI,SK-MEL-28 melanoma,> 100 µM
same,TGI,SK-MEL-5 melanoma,> 100 µM
same,TGI,SK-OV-3 ovarian,> 100 µM
same,TGI,SN12C renal,> 100 µM
same,TGI,SNB-19 CNS,> 100 µM
same,TGI,SNB-75 CNS,> 100 µM
same,TGI,SNB-78 CNS,> 100 µM
same,TGI,SR leukemia,> 100 µM
same,TGI,SW-620 colon,> 100 µM
same,TGI,TK-10 renal,> 100 µM
same,TGI,U251 CNS,> 100 µM
same,TGI,UACC-257 melanoma,> 100 µM
same,TGI,UACC-62 melanoma,> 100 µM
same,TGI,UO-31 renal,> 100 µM
same,TGI,XF 498 CNS,> 100 µM
Cc1cccc(C(C)(C)C)c1NC(=O)CCl,TGI,786-0 renal,> 100 µM
same,TGI,A498 renal,> 100 µM
same,TGI,A549 NSCLC,> 100 µM
same,TGI,ACHN renal,> 100 µM
same,TGI,CAKI-1 renal,> 100 µM
same,TGI,CCRF-CEM leukemia,> 100 µM
same,TGI,COLO 205 colon,> 100 µM
same,TGI,DLD-1 colon,> 100 µM
same,TGI,DMS 273 small cell lung,> 100 µM
same,TGI,EKVX NSCLC,> 100 µM
same,TGI,HCC-2998 colon,> 100 µM
same,TGI,HCT-116 colon,> 100 µM
same,TGI,HL-60(TB) leukemia,> 100 µM
same,TGI,HOP-18 NSCLC,> 100 µM
same,TGI,HOP-62 NSCLC,> 100 µM
same,TGI,HT29 colon,> 100 µM
same,TGI,IGROV1 ovarian,> 100 µM
same,TGI,K-562 leukemia,> 100 µM
same,TGI,KM12 colon,> 100 µM
same,TGI,KM20L2 colon,> 100 µM
same,TGI,LOX IMVI melanoma,> 100 µM
same,TGI,LXFL 529 NSCLC,> 100 µM
same,TGI,M14 melanoma,> 100 µM
same,TGI,M19-MEL melanoma,> 100 µM
same,TGI,MALME-3M melanoma,> 100 µM
same,TGI,MOLT-4 leukemia,> 100 µM
same,TGI,NCI-H226 lung,> 100 µM
same,TGI,NCI-H23 lung,> 100 µM
same,TGI,NCI-H460 lung,> 100 µM
same,TGI,NCI-H522 lung,> 100 µM
same,TGI,OVCAR-3 ovarian,> 100 µM
same,TGI,OVCAR-4 ovarian,> 100 µM
same,TGI,OVCAR-8 ovarian,> 100 µM
same,TGI,RXF 393 renal,> 100 µM
same,TGI,RXF-631 renal,> 100 µM
same,TGI,SF-268 CNS,> 100 µM
same,TGI,SF-295 CNS,> 100 µM
same,TGI,SF-539 CNS,> 100 µM
same,TGI,SK-MEL-2 melanoma,> 100 µM
same,TGI,SK-MEL-28 melanoma,> 100 µM
same,TGI,SK-MEL-5 melanoma,> 100 µM
same,TGI,SK-OV-3 ovarian,> 100 µM
same,TGI,SN12C renal,> 100 µM
same,TGI,SNB-19 CNS,> 100 µM
same,TGI,SNB-75 CNS,> 100 µM
same,TGI,SNB-78 CNS,> 100 µM
same,TGI,SR leukemia,> 100 µM
same,TGI,SW-620 colon,> 100 µM
same,TGI,TK-10 renal,> 100 µM
same,TGI,U251 CNS,> 100 µM
same,TGI,UACC-257 melanoma,> 100 µM
same,TGI,UACC-62 melanoma,> 100 µM
same,TGI,UO-31 renal,> 100 µM
same,TGI,XF 498 CNS,> 100 µM
CCOC(=O)c1csc(CCCCCCc2nc(C(=O)OCC)cs2)n1,TGI,786-0 renal,> 56.7 µM
same,TGI,A498 renal,> 100 µM
same,TGI,A549 NSCLC,> 66.5 µM
same,TGI,ACHN renal,> 100 µM
same,TGI,CAKI-1 renal,> 100 µM
same,TGI,CCRF-CEM leukemia,> 63.9 µM
same,TGI,COLO 205 colon,98.1 µM
same,TGI,DLD-1 colon,> 100 µM
same,TGI,DMS 273 small cell lung,> 100 µM
same,TGI,EKVX NSCLC,> 100 µM
same,TGI,HCC-2998 colon,> 100 µM
same,TGI,HCT-116 colon,> 52.3 µM
same,TGI,HCT-15 colon,> 100 µM
same,TGI,HL-60(TB) leukemia,> 65.4 µM
same,TGI,HOP-18 NSCLC,> 100 µM
same,TGI,HOP-62 NSCLC,> 89.1 µM
same,TGI,HOP-92 NSCLC,> 100 µM
same,TGI,HT29 colon,> 100 µM
same,TGI,IGROV1 ovarian,> 100 µM
same,TGI,K-562 leukemia,> 62 µM
same,TGI,KM12 colon,> 100 µM
same,TGI,KM20L2 colon,> 100 µM
same,TGI,LOX IMVI melanoma,> 54.5 µM
same,TGI,LXFL 529 NSCLC,> 100 µM
same,TGI,M14 melanoma,> 100 µM
same,TGI,M19-MEL melanoma,57.5 µM
same,TGI,MALME-3M melanoma,> 100 µM
same,TGI,MOLT-4 leukemia,> 100 µM
same,TGI,NCI-H226 lung,97.5 µM
same,TGI,NCI-H23 lung,99.7 µM
same,TGI,NCI-H460 lung,> 57.7 µM
same,TGI,NCI-H522 lung,> 100 µM
same,TGI,OVCAR-3 ovarian,> 100 µM
same,TGI,OVCAR-4 ovarian,> 100 µM
same,TGI,OVCAR-5 ovarian,> 100 µM
same,TGI,OVCAR-8 ovarian,> 87.2 µM
same,TGI,RPMI-8226 leukemia,> 69.2 µM
same,TGI,RXF 393 renal,64 µM
same,TGI,RXF-631 renal,> 100 µM
same,TGI,SF-268 CNS,> 100 µM
same,TGI,SF-295 CNS,> 100 µM
same,TGI,SF-539 CNS,> 88 µM
same,TGI,SK-MEL-2 melanoma,> 100 µM
same,TGI,SK-MEL-28 melanoma,> 83.8 µM
same,TGI,SK-MEL-5 melanoma,> 100 µM
same,TGI,SK-OV-3 ovarian,> 100 µM
same,TGI,SN12C renal,> 100 µM
same,TGI,SNB-19 CNS,> 100 µM
same,TGI,SNB-75 CNS,70.4 µM
same,TGI,SNB-78 CNS,> 100 µM
same,TGI,SR leukemia,> 100 µM
same,TGI,SW-620 colon,> 65.4 µM
same,TGI,TK-10 renal,> 100 µM
same,TGI,U251 CNS,> 59.6 µM
same,TGI,UACC-257 melanoma,96.9 µM
same,TGI,UACC-62 melanoma,> 100 µM
same,TGI,UO-31 renal,> 100 µM
same,TGI,XF 498 CNS,86.3 µM
